Laboratory results reported in US12331302B2, “Fungal autoinducible expression system” (priority 2019, dated 2025).

Assays:
Assay type in all cases: cell-based, Saccharomyces cerevisiae
FUS1 promoter (pFUS1) = experiment: mCherry expression under control of pFUS1, with or without α-factor; settings: after 24 h, culture with addition of 5 μM α-factor
Experimental: (§1) Pre-cultures are prepared by inoculation of biological triplicates in CSM with appropriate amino acid drop out, and are grown for two days at 30° C., 250 rpm. Thereafter, they are inoculated to an OD of 0.05 in two duplicate tubes, whereof one is induced with 5 μM α-factor. Strains are grown at 30° C., 250 rpm for 24 h and samples are taken for flow cytometry after 0, 8 and 24 h. For characterization of strains with endogenous α-factor production, transformation plates and pre-culture media is supplemented with 5 μg/mL doxycycline. The pre-cultures are washed to remove Bar1 and doxycycline prior to inoculation. OD is measured at 600 nm and GFP and mCherry production is measured with a BD Accuri™ C6 flow cytometer from Becton, Dickinson and Company (Franklin Lakes, NJ, USA).
(§2) To test the initial system configuration, pFUS1-Cre and pTEF1-loxP-GFP-loxP-mCherry is transformed into strain JL275 (BY4741 MATa Δbar1 Δfar1). Precultures are grown for two days in CSM-ura-leu. Each replicate is used to inoculate two cultures, whereof one is induced with 5 μM α-factor. Fluorescence is measured after 0, 8 and 24 h. […] This indicated a high basal level expression from the FUS1 promoter, leading to leaky expression of Cre recombinase and early recombination. To investigate this hypothesis, mCherry is cloned under control of pFUS1 and mCherry expression is measured at 0 and 24 h. […]

[1] = tested on: Ste2 receptor / pFUS1J2-ubiM-Cre circuit in strain JL275; experiment: Strain characterization: GFP and mCherry production by flow cytometry after α-factor induction of the Cre/loxP circuit; settings: JL275 with pFUS1J2-ubiM-Cre and pTEF1-loxP-GFP-loxP-mCherry
Experimental: as §1, §2

strains JL277-JL280 = experiment: Autoinducible strains with endogenous α-factor production, fluorescence by TECAN plate reader; settings: JL277-280 with pFUS1J2-ubiM-Cre pTDH3-rtTA pTETO3-BAR1 and pTEF1-loxP-GFP-loxP-mCherry; with or without 5 μM α-factor
Experimental: To establish autoinducible strains, the α-factor-expressing gene MFα1 under control of four different native promoters with different expression strengths (pTDH3, pPGK1, pYEF3 and pACT1) is integrated into locus p416d into the genome of JL275, resulting in strains JL277-JL280, respectively. The strains are transformed with plasmids pFUS1J2-ubiM-Cre pTDH3-rtTA pTETO3-BAR1 and pTEF1-loxP-GFP-loxP-mCherry, inoculated into CSM-ura-leu supplemented with 5 μg/mL doxycycline and pre-cultured for two days. The pre-cultures are washed and inoculated to an OD of 0.05, and grown with or without 5 μM α-factor to compare endogenous and external inducibility. The strain fluorescence is measured with a TECAN plate reader. […] The strain also continued to produce GFP unless α-factor is added. This experiment is to be repeated according to the previously established strain characterization protocol and measured with a flow cytometer.

[2] = tested on: pTETO3-BAR1 control module in strain JL275; experiment: Functionality of doxycycline-inducible BAR1 expression (supernatant/α-factor mix); settings: supernatant mixed with 600 μM α-factor, 30° C., 4 h
Experimental: The functionality of Bar1 expression is investigated by transforming JL275 with pFUS1J2-ubiM-Cre pTDH3-rtTA pTETO3-BAR1 or control plasmid pFUS1-Cre. Both strains are inoculated in media with or without 5 μg/mL doxycycline, and are grown to stationary phase where after they are spun down. 0.5 mL supernatant is mixed with 0.5 mL 600 μM α-factor and incubated at 30° C. for 4 h. A corresponding amount of 5 μM α-factor (assuming no α-factor has been degraded) from each supernatant/α-factor incubation mix is used to induce cultures of JL275 with pFUS1J2-ubiM-Cre and pTEF1-loxP-GFP-loxP-mCherry (FIG. 4A). 0 and 5 μM α-factor are used as controls.

## α-factor
FUS1 promoter (pFUS1)
  mCherry expression from pFUS1 compared to the background strain autofluorescence: approximately 20 fold
[1]; 0, 0.1, 0.5, 1, 5 or 10 μM α-factor
  System titratability (mCherry output): mCherry output correlating to the amount of α-factor added
[1]; 5 μM α-factor, 0, 8 and 24 h
  GFP to mCherry production shift: clear shift from GFP to mCherry production
Strains JL277-JL280
  mCherry production induction: barely induced unless α-factor is added

B1: Bar1: α-factor degrading protease (protein, UniProt P12630 25-587, looked up)
Barrierpepsin: LTNDGTGHLEFLLQHEEEMYYATTLDIGTPSQSLTVLFDTGSADFWVMDSSNPFCLPNSNTSSYSNATYNGEEVKPSIDCRSMSTYNEHRSSTYQYLENGRFYITYADGTFADGSWGTETVSINGIDIPNIQFGVAKYATTPVSGVLGIGFPRRESVKGYEGAPNEYYPNFPQILKSEKIIDVVAYSLFLNSPDSGTGSIVFGAIDESKFSGDLFTFPMVNEYPTIVDAPATLAMTIQGLGAQNKSSCEHETFTTTKYPVLLDSGTSLLNAPKVIADKMASFVNASYSEEEGIYILDCPVSVGDVEYNFDFGDLQISVPLSSLILSPETEGSYCGFAVQPTNDSMVLGDVFLSSAYVVFDLDNYKISLAQANWNASEVSKKLVNIQTDGSISGAKIATAEPWSTNEPFTVTSDIYSSTGCKSRPFLQSSTASSLIAETNVQSRNCSTKMPGTRSTTVLSKPTQNSAMHQSTGAVTQTSNETKLELSSTMANSGSVSLPTSNSIDKEFEHSKSQTTSDPSVAEHSTFNQTFVHETKYRPTHKTVITETVTKYSTVLINVCKPTY
[2]
  Degradation of α-factor by supernatant: functional and degrades α-factor
